The text below walks through data of publication PMC4946363 (Cancer Research and Treatment : Official Journal of Korean …, 2016).

Structures can show the parent of a compound that is named as a salt.

The conditions of series [1]: oral; cited from earlier work.
A short description of series [2]: Stability of imatinib in the LC-MS/MS bioanalytical method validation.
Series [3] concerns myeloid blast crisis and lymphoid blast crisis. The following applies: cited from earlier work.
Series [4] concerns CML. The note with it: CML patients; cited from earlier work.

As to `Cc1ccc(NC(=O)c2ccc(CN3CCN(C)CC3)cc2)cc1Nc1nccc(-c2cccnc2)n1` [imatinib], the “Inter-patient CV, lnAUC0-24” value (ln-transformed AUC0-24) stood at 25.2%. For the same compound, for the setting “ln-transformed AUC0-24, test and reference together”, the “Intra-patient CV, lnAUC0-24” value was determined as 12.3%. In addition, the “Inter-patient CV, lnCmax” value (ln-transformed Cmax) was found to be 20.4%. Also, under “ln-transformed Cmax, test and reference together”, the “Intra-patient CV, lnCmax” value is 13.6%. Also, the “Time to attain peak plasma concentration (Cmax)” value in series [1] is 2 to 4 h. In addition, the “In-injector stability, % change, HQC” value in series [2] (2-8°C, ~77 hr, high quality control) is “–5.6%”. Besides, the “In-injector stability, % change, LQC” value in series [2] (2-8°C, ~77 hr, low quality control) is listed as 4.6%. Moreover, the “Freeze thaw stability, % change, HQC” value in series [2] (3 cycles, high quality control) is “–6.1%”. For the same compound, the “Freeze thaw stability, % change, LQC” value in series [2] (3 cycles, low quality control) was 2.2%. In addition, the “Long-term stability, accuracy, HQC” value in series [2] (70 days, high quality control) is listed as 97.4%. Further, the “Long-term stability, accuracy, LQC” value in series [2] (70 days, low quality control) is reported as 95.7%. Further, the “Long-term stability, accuracy, MQC” value in series [2] (70 days, medium quality control) worked out at 101.5%. The “Bench top stability, % change, HQC” value in series [2] (room temperature, ~7 hr, high quality control) is “–7.2%”. The “Bench top stability, % change, LQC” value in series [2] (room temperature, ~7 hr, low quality control) turned out to be 10.2%. For the same compound, the “Duration of remission from the commencement of therapy” value in series [3] (responding patients continued on imatinib treatment) was 101 to 349 days.
Regarding `Cc1ccc(NC(=O)c2ccc(CN3CCN(C)CC3)cc2)cc1Nc1nccc(-c2cccnc2)n1` [imatinib mesylate], the “Response rate, lymphoid blast crisis” value in series [3] (oral 300-1,000 mg/day, 14 out of 20 patients) is 70%. The “Response rate, myeloid blast crisis” value in series [3] (oral 300-1,000 mg/day, 21 out of 38 patients) is 55%. For the same compound, in series [3] (oral 300-1,000 mg/day), the “Complete hematologic response, myeloid blast crisis” value is on record as 19% and the “Complete hematologic responses, lymphoid blast crisis” value is 20%.
Consider interferon-α [IFN-α], for which, in series [4], the Cytogenetic remission is recorded as 6%-20%.
